Measured values published in patent US20190209641A1, “METHODS FOR PREVENTING OR TREATING METABOLIC SYNDROME” (Cornell University, priority 2009, published 2019).
Where “and” joins values, the source holds several entries; their conditions need not be identical. Identical values can stand only once. Non-standard residues stand in square brackets, D forms with d. No end group written: not given here.

Legend:
[1] = tested on: DIO C57BL/6 mice; experiment: Diet-induced obesity (DIO) in C57BL/6 mice, Example 3; type: in vivo, mouse; conditions: for Glucose Tolerance (IPGTT), Week 5: DIO vehicle 1719.7 ± 56.8, chow vehicle 1213.6 ± 54.1; for glucose tolerance in the obese mouse model (in words): IPGTT, 1 g/kg D-glucose i.p.; for abdominal fat index / subcutaneous fat index: after 14 weeks of treatment
Description: To analyze the pharmacodynamic effects of SS-31 and SS-20 against diet-induced obesity (D10) in C57BL/6 mice, the test subjects were fed either a normal diet or a high-fat diet having the composition shown in Table 9.
After several days of acclimation, animals were weighted and randomly assigned to the following treatment groups.
Starting from the first day of treatment, animals in Groups B to I were switched to HFD. During the entire treatment period, the following activities were performed on specific days.
Dose Preparation & Administration. The treatment was given once a day (5 days a week) with injection site alternated. The concentration of SS-31 and SS-20 dosed at 3 mg/kg was 0.6 mg/ml and that of 10 mg/kg was 2 mg/ml. The treatment volume (0.05 mUl0 g for s.c. and 0.2 ml/10 g for p.o.) for each test animal was adjusted according to its body weight taken on the beginning of each week.
Blood Sample Collection. Blood samples were collected by tail snip according to the Medicilon/MPI Preclinical Research (Shanghai) LLC SOP on Blood Collection Techniques. […] Collected blood samples were set at room temperature for 1 hour to allow clotting before being centrifuged at 2,000×g for 10 min. The supernatant were collected and re-centrifuged at 2,000×g for another 10 min. to generate the serum. Part of the serum samples were used for total cholesterol (TC) analysis immediately. The rest were stored at −20° C. until being used in insulin analysis.
Serum Insulin, Triglyceride (TG) & Total Cholesterol (TC). Serum insulin levels were measured using Rat/Mouse Insulin ELISA Kit from Millipore Corporation (Catalog # EZRMI-13K, St. Charles, Mo., USA). Serum TG levels were measured by automatic biochemical analyzer. FIG. 5A is a chart illustrating the effects of peptide treatment on triglycerides in a murine model of diet-induced obesity after 14 weeks of treatment. FIG. 5B is a chart illustrating the effects of peptide treatment on total cholesterol in a murine model of diet-induced obesity after 14 weeks of treatment. FIG. 5C is a chart illustrating the effects of peptide treatment on HDL cholesterol in a murine model of diet-induced obesity after 14 weeks of treatment.
IPGTT. IPGTT was performed according to the Medicilon-MPI Preclinical Research (Shanghai) LLC SOP on Intraperitoneal (IP) Glucose Tolerance Test with slight modifications. Mice were fast overnight before the baseline glucose levels assessed in the next morning. After that, an IP injection of 1 g/kg D-glucose was given to each animal and the blood glucose levels were then measured on 15, 30, 60 and 120 minutes post the IP injection.

[2] = tested on: HFD/STZ SD rats; experiment: Rat model of metabolic syndrome (HFD + low-dose STZ), Example 1; type: in vivo; conditions: for body weight increase over the 10-week treatment period: 10 mg/kg s.c. q.d. 5 days a week, by the end of 10th week, HFD/STZ control 3.6%, NRC 23.3%; for effect on blood glucose: 10 mg/kg s.c., week 4 post peptide treatment, vs. HFD/STZ vehicle rats
Description: The effects of aromatic-cationic peptides in treating a subject suffering from metabolic syndrome were investigated in a Sprague-Dawley rat model over […]. The example describes the results of such experiments.
In vivo models. A rat model of metabolic syndrome was established by combination of 6-week HFD and low-dose STZ (40 mg/kg) injection in SD rats. Rats of the same batch fed with normal chow (NRC) were used as a control.
Study groups. Group A: NRC+PBS s.c. q.d. (Mon-Fri)*, n=5; Group B: HFD +STZ+PBS s.c. q.d. (Mon-Fri), n=8; Group C:HFD+STZ+SS-31 10 mg/kg s.c. q.d. (Mon-Fri), n=8; Group D: HFD+STZ+SS-20 10 mg/kg s.c. q.d. (Mon-Fri), n=8.
Preparation and administration of test compounds. SS-31 or SS-20 was dissolved in 0.01 M PBS (pH 7.0). The 10-week treatment was given once a day (5 days a week) with s.c. injection site alternated. The concentration of SS-31 and SS-20 was 5.0 mg/mL. The injection volume (0.2 mL/100 g) for each test animal was adjusted according to body weight taken on the beginning of each week. STZ was dissolved in 0.1 M citrate buffer (pH 4.5) to concentration of 20 mg/mL. STZ is injected intraperitoneally.
Blood glucose. Blood glucose was tested by ACCU-CHEK® Advantage™ blood glucose meter and test strips from Roche diagnostics GmbH (Mannheim, Germany).
Blood sample handling. Blood samples were collected by tail snip. […] Collected blood samples were set at room temperature for 30 min to allow clotting before being centrifuged at 1,200×g for 10 min. The supernatant were collected and re-centrifuged at 1,200×g for another 5 min to generate the serum. Serum samples were aliquotted and stored at −20° C. until being used in analysis.
Statistics: Statistic analysis oft-test and one-way ANOVA was performed by SPSS (Statistical Package for Social Science) analysis software.

[3] = tested on: HFD/STZ rats; experiment: HFD/STZ rat model of metabolic syndrome, 10-week peptide treatment, Example 2; type: in vivo; conditions: for TG level before peptide treatment: baseline; for change in blood glucose during 10-week peptide treatment / change in body weight during 10-week peptide treatment: SS-31 10, 3, 1 mg/kg or SS-20 10, 3 mg/kg s.c. once daily 5 days a week
Description: This study was initiated to investigate the effects of SS-31 and SS-20 in a model of metabolic syndrome over a 10 week period. Rats were fed with a high-fat diet for 6 weeks and then administered a single dose of STZ (30 mg/kg). The rats were maintained on a HFD until 14 weeks after STZ administration. Control rats fed normal rat chow (NRC) for 6 weeks were then administered citrate buffer without STZ. After 5 months, diabetic rats were treated with SS-31 (10 mg/kg, 3 mg/kg, 1 mg/kg s.c. once daily), SS-20 (10 mg/kg, 3 mg/kg s.c. once daily) or vehicle (saline) 5 days a week for 10 weeks. The study groups were as follows:
Group A: HFD/STZ+SS-31 10 mg/kg s.c. q.d. (Mon-Fri.), n=12;
Group B: HFD/STZ+SS-31 3 mg/kg s.c. q.d. (Mon-Fri.), n=12;
Group C: HFD/STZ+SS-31 1 mg/kg s.c. q.d. (Mon-Fri.), n=10;
Group D: HFD/STZ+SS-20 10 mg/kg s.c. q.d. (Mon-Fri.), n=10;
Group E: HFD/STZ+SS-20 3 mg/kg s.c. q.d. (Mon-Fri.), n=10;
Group F: HFD/STZ+vehicle s.c. q.d. (Mon-Fri.), n=10;
Group G: NRC +vehicle s.c. q.d. (Mon-Fri.), n=10.
HFD feeding for 6 weeks produced obvious body weight gain (452.9±3.8g in HFD group vs. 425.5±7.1 g, P<0.01) and STZ administration increased blood glucose (26.5±0.5 mmol/L in HFD/STZ rats vs. 9.8±0.5 mmol/L in NRC rats, P<0.001) and hyperlipidemia (P<0.01), indicating a metabolic syndrome-like disorder in these test subjects.

[4] = tested on: STZ-induced diabetic Sprague-Dawley rats; experiment: STZ diabetes model in male Sprague-Dawley rats, Example 4; type: in vivo, rat; conditions: 10 mg/kg s.c. q.d. 5 days a week, after peptide treatment for 2 weeks or 4 weeks, vs. STZ/Saline group
Description: The objective of this study was to explore the protective effect of SS-31 or SS-20 against Streptozotocin (STZ) induced diabetic complications and metabolic syndrome in male Sprague-Dawley rats.
Rat models of type 1 diabetes were established by administration of high-dose STZ (30 mg/kg). Rats of the same batch fed with regular chow are used as normal control. The study groups included: Group A: STZ+SS-31 10 mg/kg s.c. q.d. (M.-F.), n=11; Group B: STZ+SS-20 10 mg/kg s.c. q.d. (M.-F.), n=11; Group C: STZ+vehicle s.c. q.d. (M.-F.), n=10; Group D: NRC +vehicle s.c. q.d. (M.-F.), n=10.
The compounds were dissolved in saline. The treatment was given once a day (5 days a week) with injection site to be alternated. The concentration of SS-31 and SS-20 dosed at 10mg/kg is 5mg/ml. The treatment volume (0.2 ml/100 g for s.c.) for each test animal was adjusted according to its body weight taken on the beginning of each week. STZ was dissolved in 0.1 M citrate buffer (pH4.5) to concentration of 20 mg/mL. STZ was injected intraperitoneally.

[5] = 10 mg/kg s.c. q.d. 5 days a week

Compound | Glucose Tolerance (IPGTT), Week 5 ([1]; 2 mg/kg p.o.) | body weight increase over the 10-week treatment period [2] [%] | effect on blood glucose [2] | TG level before peptide treatment ([3]; 3 mg/kg group) [mM] | TG level after 10 weeks' peptide treatment ([3]; 3 mg/kg s.c. q.d. 5 days a week) [mM] | TG level before peptide treatment ([3]; 10 mg/kg group) [mM] | TG level after 10 weeks' peptide treatment [3, 5] [mM] | change in blood glucose during 10-week peptide treatment [3] | change in body weight during 10-week peptide treatment [3] | Glucose Tolerance (IPGTT), Week 5 ([1]; 3 mg/kg s.c.) | Glucose Tolerance (IPGTT), Week 5 ([1]; 10 mg/kg s.c.) | glucose tolerance in the obese mouse model (in words) [1] | abdominal fat index [1] | subcutaneous fat index [1] | TG level [4] | TG level before peptide treatment ([3]; 3 mg/kg group, 3 mg/kg) | TG level after 10 weeks' peptide treatment ([3]; 3 mg/kg s.c. q.d. 5 days a week, 3 mg/kg)
CN(CCOc1ccc(CC2SC(=O)NC2=O)cc1)c1ccccn1 (centres unmarked) [Rosi, Rosiglitazone, reference compound] | 1487.5 ± 44.2 | – | – | – | – | – | – | – | – | – | – | – | – | – | – | – | –
D-Arg-2′,6′-Dmt-Lys-Phe-NH2 [SS-31] | – | 16.3 | down-regulation effect on blood glucose | 4.17 ± 0.88 | 2.46 ± 0.52 | 3.77 ± 0.38 | 1.75 ± 0.33 | no obvious changes | no obvious changes | 1460.6 ± 64.1 | 1584.3 ± 78.3 | significantly improve glucose tolerance | capable of reducing | capable of reducing | increased less than STZ/Saline group | – | –
F[dR]FK-NH2 [SS-20] | – | 9.0 | down-regulation effect on blood glucose | – | – | 4.17 ± 1.02 | 1.97 ± 0.46 | no obvious changes | no obvious changes | 1534.1 ± 53.3 | 1494.5 ± 54.4 | significantly improve glucose tolerance | capable of reducing | capable of reducing | increased less than STZ/Saline group | 4.66 ± 1.40 mM and 3.90 ± 0.65 mM | 2.43 ± 0.47 mM and 3.70 ± 1.16 mM
